In experiment [1] the target is T1, Furin (108-574-Tev-Flag-His) enzyme (Homo sapiens, UniProt P09958).
T1 construct: Furin (108-574-Tev-Flag-His) enzyme was expressed and purified from CHO cells; TEV cleavage site (C); FLAG (C); His (C); made in house; host or cells: CHO cells
Description: Furin enzyme assay. In kind it is biochemical. The conditions noted are these: for IC50: read-out: furin enzyme pIC50 (converted). A digest of the protocol: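 CHO-expressed, purified furin construct at 40 pM in 100 mM HEPES pH7.5, 1 mM CaCl2, 0.005% Triton X-100. Eleven-point 1:3 series, 0.00017–10 μM final, incubated 2 h at room temperature and read on Envision. pXC50 from four-parameter fit.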

Experiment [2] addresses T2, furin (endogenous protease) in U20S cells (Homo sapiens, UniProt P09958).
T2 construct: the endogenous protease cleaves GFP; endogenous in cells; host or cells: U2OS cells transduced with a BacMam reporter
Description: Furin cell-based assay (image-based, Golgi-targeted GFP with BMP10 furin/PCSK cleavage site).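 Also: Read-out is mean GFP fluorescence of Golgi puncta per cell by high-content imaging, retained when furin inhibited, over an eleven-point 0.00017–10 µM series, four-parameter fit.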 The conditions noted are these: 24-hour incubation, read-out: furin golgi cell pXC50 (converted).

22 molecules from patent publication US11773078B2, “Furin inhibitors” (Glaxosmithkline Intellectual Property Development Limited, priority 2018, dated 2023) can be followed below.

T1 sequence (P09958 108-574): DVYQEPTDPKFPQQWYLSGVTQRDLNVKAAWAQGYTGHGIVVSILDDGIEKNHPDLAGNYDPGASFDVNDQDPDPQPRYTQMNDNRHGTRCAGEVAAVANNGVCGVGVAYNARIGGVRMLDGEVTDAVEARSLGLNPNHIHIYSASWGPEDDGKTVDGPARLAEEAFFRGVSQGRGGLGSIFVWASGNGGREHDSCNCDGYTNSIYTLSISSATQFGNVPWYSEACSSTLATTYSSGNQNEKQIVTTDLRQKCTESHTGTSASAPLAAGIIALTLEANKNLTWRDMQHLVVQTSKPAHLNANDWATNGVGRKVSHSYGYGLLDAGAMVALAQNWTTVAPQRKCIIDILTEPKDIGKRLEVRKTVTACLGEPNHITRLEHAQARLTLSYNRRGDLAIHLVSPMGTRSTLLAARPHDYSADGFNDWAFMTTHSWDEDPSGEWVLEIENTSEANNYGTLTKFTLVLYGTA
T2 sequence (P09958 108-794): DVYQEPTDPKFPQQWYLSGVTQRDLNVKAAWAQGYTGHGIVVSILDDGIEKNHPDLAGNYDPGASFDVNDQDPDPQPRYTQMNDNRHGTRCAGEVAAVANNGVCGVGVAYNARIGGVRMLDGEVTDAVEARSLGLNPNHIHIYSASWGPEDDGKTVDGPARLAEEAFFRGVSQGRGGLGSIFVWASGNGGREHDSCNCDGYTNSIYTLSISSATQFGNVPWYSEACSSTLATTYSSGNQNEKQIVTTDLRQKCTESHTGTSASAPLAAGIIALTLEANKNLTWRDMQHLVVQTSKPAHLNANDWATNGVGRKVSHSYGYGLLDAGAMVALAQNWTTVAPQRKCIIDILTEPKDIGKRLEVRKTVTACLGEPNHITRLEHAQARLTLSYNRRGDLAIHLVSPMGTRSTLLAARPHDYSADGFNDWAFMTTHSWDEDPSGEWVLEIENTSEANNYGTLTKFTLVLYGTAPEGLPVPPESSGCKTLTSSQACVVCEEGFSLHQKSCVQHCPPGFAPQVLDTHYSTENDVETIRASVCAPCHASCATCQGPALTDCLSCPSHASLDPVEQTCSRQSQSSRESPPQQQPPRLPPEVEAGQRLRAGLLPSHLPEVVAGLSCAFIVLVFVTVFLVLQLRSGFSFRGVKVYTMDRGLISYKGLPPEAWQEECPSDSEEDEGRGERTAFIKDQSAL

For the molecule `CC(=O)NCC1CCN(Cc2cc(Oc3cnc(N4CCN(C(C)CC(=O)O)CC4)nc3)nc(-c3cc(Cl)cc(Cl)c3)c2)CC1` (centres unmarked) [Example 282, 3-(4-(5-((4-((4-(acetamidomethyl)piperidin-1-yl)methyl)-6-(3,5-dichlorophenyl)pyridin-2-yl)oxy)pyrimidin-2-yl)piperazin-1-yl)butanoic acid], the IC50 in experiment [1] was 0.2 nM. In addition, the EC50 in experiment [2] was 7.94 nM.
Take `CC(=O)NCC1CCN(Cc2cc(Oc3cnc(N4CCN(CC(C)C(=O)O)CC4)nc3)nc(-c3cc(Cl)cc(Cl)c3)c2)CC1` (centres unmarked) [Example 283, 3-(4-(5-((4-((4-(acetamidomethyl)piperidin-1-yl)methyl)-6-(3,5-dichlorophenyl)pyridin-2-yl)oxy)pyrimidin-2-yl)piperazin-1-yl)-2-methylpropanoic acid]: the “furin enzyme pIC50” value in experiment [1] is reported as 9.1. Also, the EC50 in experiment [2] is 25.1 nM.
Take `CC(=O)NCC1CCN(Cc2cc(Oc3cnc(N4CCN(CC(C)C(N)=O)CC4)nc3)nc(-c3cc(Cl)cc(Cl)c3)c2)CC1` (centres unmarked) [Example 284, 3-(4-(5-((4-((4-(acetamidomethyl)piperidin-1-yl)methyl)-6-(3,5-dichlorophenyl)pyridin-2-yl)oxy)pyrimidin-2-yl)piperazin-1-yl)-2-methylpropanamide]: the “furin enzyme pIC50” value in experiment [1] is reported as 10.1. In experiment [2], the EC50 is 1.26 nM.
The like results for `CC(=O)NCC1CCN(Cc2cc(Oc3cnc(N4CCN(CCS(C)(=O)=O)CC4)nc3)nc(-c3cc(Cl)cc(Cl)c3)c2)CC1` [Example 285, N-((1-((2-(3,5-dichlorophenyl)-6-((2-(4-(2-(methylsulfonyl)ethyl)piperazin-1-yl)pyrimidin-5-yl)oxy)pyridin-4-yl)methyl)piperidin-4-yl)methyl)acetamide] were, in that order, 8.1 and 63.1 nM.
Regarding `CC(=O)NCC1CCN(Cc2cc(Oc3cnc(N4CCN(CCS(N)(=O)=O)CC4)nc3)nc(-c3cc(Cl)cc(Cl)c3)c2)CC1` [Example 286, N-((1-((2-(3,5-dichlorophenyl)-6-((2-(4-(2-sulfamoylethyl)piperazin-1-yl)pyrimidin-5-yl)oxy)pyridin-4-yl)methyl)piperidin-4-yl)methyl)acetamide], in experiment [1], the “furin enzyme pIC50” value was found to be 9.4. Besides, the EC50 in experiment [2] was 7.94 nM.
For `CC(=O)NCC1CCN(Cc2cc(Oc3ccc(N4CCN(CCS(=O)(=O)O)CC4)nc3)nc(-c3cc(Cl)cc(Cl)c3)c2)CC1` [Example 287, 2-(4-(5-((4-((4-(acetamidomethyl)piperidin-1-yl)methyl)-6-(3,5-dichlorophenyl)pyridin-2-yl)oxy)pyridin-2-yl)piperazin-1-yl)ethanesulfonic acid], the IC50 in experiment [1] was 2 nM. Also, in experiment [2], the EC50 was 631 nM.
Turning to `CCC(CN1CCN(c2ccc(Oc3cc(CN4CCC(CNC(C)=O)CC4)cc(-c4cc(Cl)cc(Cl)c4)n3)cn2)CC1)C(=O)O` (centres unmarked) [Example 288, 2-((4-(5-((4-((4-(acetamidomethyl)piperidin-1-yl)methyl)-6-(3,5-dichlorophenyl)pyridin-2-yl)oxy)pyridin-2-yl)piperazin-1-yl)methyl)butanoic acid], the “furin enzyme pIC50” value in experiment [1] was determined as 9.4. For the same molecule, the EC50 in experiment [2] is 50.1 nM.
The like results for `CC(=O)NCC1CCN(Cc2cc(Oc3ccc(N4CCN(CCS(N)(=O)=O)CC4)nc3)nc(-c3cc(Cl)cc(Cl)c3)c2)CC1` [Example 289, N-((1-((2-(3,5-dichlorophenyl)-6-((6-(4-(2-sulfamoylethyl)piperazin-1-yl)pyridin-3-yl)oxy)pyridin-4-yl)methyl)piperidin-4-yl)methyl)acetamide] were, in that order, 8.6 and 5.01 nM.
The like results for `CNC(=O)NCC1CCN(Cc2cc(Oc3ccc(N4CCN(CCS(C)(=O)=O)CC4)nc3)nc(-c3cc(Cl)cc(Cl)c3)c2)CC1` [Example 290, 1-((1-((2-(3,5-dichlorophenyl)-6-((6-(4-(2-(methylsulfonyl)ethyl)piperazin-1-yl)pyridin-3-yl)oxy)pyridin-4-yl)methyl)piperidin-4-yl)methyl)-3-methylurea] were, in that order, 8.2 and 15.8 nM.
The like results for `CNC(=O)NCC1CCN(Cc2cc(Oc3cnc(N4CCN(CC(C)C(N)=O)CC4)nc3)nc(-c3cc(Cl)cc(Cl)c3)c2)CC1` (centres unmarked) [Example 291, 3-(4-(5-((6-(3,5-dichlorophenyl)-4-((4-((3-methylureido)methyl)piperidin-1-yl)methyl)pyridin-2-yl)oxy)pyrimidin-2-yl)piperazin-1-yl)-2-methylpropanamide] were, in that order, 10.7 and 7.94 nM.
For the molecule `CNC(=O)NCC1CCN(Cc2cc(Oc3cnc(N4CCN(CC(C)C(=O)O)CC4)nc3)cc(-c3cc(Cl)cc(Cl)c3)c2)CC1` (centres unmarked) [Example 292, 3-(4-(5-((3′,5′-dichloro-5-((4-((3-methylureido)methyl)piperidin-1-yl)methyl)-[1,1′-biphenyl]-3-yl)oxy)pyrimidin-2-yl)piperazin-1-yl)-2-methylpropanoic acid], the “furin enzyme pIC50” value in experiment [1] was found to be 9.4. Further, the EC50 in experiment [2] is 50.1 nM.
The like results for `CC(=O)NCC1CCN(Cc2cc(Oc3ccc(N4CCN(CCS(C)(=O)=O)CC4)nc3)cc(-c3cc(Cl)cc(Cl)c3)c2)CC1` [Example 293, N-((1-((3′,5′-dichloro-5-((6-(4-(2-(methylsulfonyl)ethyl)piper-1-yl)pyridin-3-yl)oxy)-[1,1′-biphenyl]-3-yl)methyl)piperidin-4-yl)methyl)acetamide] were, in that order, 8.2 and 158 nM.
For `COC(=O)NCC1CCN(Cc2cc(Oc3cnc(N4CCN(CCC(=O)O)[C@@H](C)C4)nc3)nc(-c3cc(Cl)cc(Cl)c3)c2)CC1` [Example 294, (S)-3-(4-(5-((6-(3,5-dichlorophenyl)-4-((4-(((methoxycarbonyl)amino)methyl)piperidin-1-yl)methyl)pyridin-2-yl)oxy)pyrimidin-2-yl)-2-methylpiperazin-1-yl)propanoic acid] the same measures were 10.1 and 20 nM.
`CNC(=O)NCC1CCN(Cc2cc(Oc3cnc(N4CCN(CCC(C)O)CC4)nc3)nc(-c3cc(Cl)cc(Cl)c3)c2)CC1` (centres unmarked) [Example 295, 1-((1-((2-(3,5-dichlorophenyl)-6-((2-(4-(3-hydroxybutyl)piperazin-1-yl)pyrimidin-5-yl)oxy)pyridin-4-yl)methyl)piperidin-4-yl)methyl)-3-methylurea]: in experiment [1], the “furin enzyme pIC50” value came to 9.5. Further, in experiment [2], the EC50 is 0.794 nM.
The like results for `CC(=O)NCC1CCN(Cc2cc(Oc3cnc(N4CC5CCC(C4)N5CCC(=O)O)nc3)nc(-c3cc(Cl)cc(Cl)c3)c2)CC1` [Example 296, 3-(3-(5-((4-((4-(acetamidomethyl)piperidin-1-yl)methyl)-6-(3,5-dichlorophenyl)pyridin-2-yl)oxy)pyrimidin-2-yl)-3,8-diazabicyclo[3.2.1]octan-8-yl)propanoic acid] were, in that order, 10.6 and 10 nM.
On to `COC(=O)CCN1CCN(c2ncc(Oc3cc(CN4CCC(CNC(C)=O)CC4)cc(-c4cc(Cl)cc(Cl)c4)n3)cn2)CC1` [Example 297, methyl 3-(4-(5-((4-((4-(acetamidomethyl)piperidin-1-yl)methyl)-6-(3,5-dichlorophenyl)pyridin-2-yl)oxy)pyrimidin-2-yl)piperazin-1-yl)propanoate], for which, in experiment [1], the “furin enzyme pIC50” value worked out at 9.4. Further, the EC50 in experiment [2] was 5.01 nM.
The like results for `C[C@@H](O)CN1CCN(c2ccc(Oc3cc(CN4CCC(CC(=O)O)CC4)cc(-c4cc(Cl)cc(Cl)c4)n3)cn2)CC1` [Example 299, (R)-2-(1-((2-(3,5-dichlorophenyl)-6-((6-(4-(2-hydroxypropyl)piperazin-1-yl)pyridin-3-yl)oxy)pyridin-4-yl)methyl)piperidin-4-yl)acetic acid] were, in that order, 8.5 and 31.6 nM.
For the molecule `O=C(O)CC1CCN(Cc2cc(Oc3ccc(N4CCN(CCO)CC4)nc3)nc(-c3cc(Cl)cc(Cl)c3)c2)CC1` [Example 300, 2-(1-((2-(3,5-dichlorophenyl)-6-((6-(4-(2-hydroxyethyl)piperazin-1-yl)pyridin-3-yl)oxy)pyridin-4-yl)methyl)piperidin-4-yl)acetic acid], in experiment [1], the “furin enzyme pIC50” value turned out to be 9.1. The EC50 in experiment [2] was 20 nM.
As for `CC(CC1CCN(Cc2cc(Oc3cnc(N4CCN(C[C@@H](C)O)CC4)nc3)nc(-c3cc(Cl)cc(Cl)c3)c2)CC1)C(=O)O` (stereo partly drawn) [Example 301, 3-(1-((2-(3,5-dichlorophenyl)-6-((2-(4-((R)-2-hydroxypropyl)piperazin-1-yl)pyrimidin-5-yl)oxy)pyridin-4-yl)methyl)piperidin-4-yl)-2-methylpropanoic acid], the “furin enzyme pIC50” value in experiment [1] was determined as 9.6. In addition, in experiment [2], the EC50 was 39.8 nM.
For `CC(=O)NCC1CCN(Cc2cc(Oc3cnc(N4CCN(C[C@@H](C)O)CC4)nc3)nc(-c3cc(Cl)cc(Cl)c3)c2)CC1` [Example 302] the same measures were 9.6 and 7.94 nM.
Consider `CC(=O)NCC1CCN(Cc2cc(Oc3cnc(N4CCN(CC(C)(C)O)CC4)nc3)nc(-c3cc(Cl)cc(Cl)c3)c2)CC1` [Example 303, N-((1-((2-(3,5-dichlorophenyl)-6-((2-(4-(2-hydroxy-2-methylpropyl)piperazin-1-yl)pyrimidin-5-yl)oxy)pyridin-4-yl)methyl)piperidin-4-yl)methyl)acetamide], for which, in experiment [1], the “furin enzyme pIC50” value is listed as 9.2. In addition, the EC50 in experiment [2] is 2.51 nM.
Regarding `CC(=O)NCC1CCN(Cc2cc(Oc3cnc(N4CCN(CC(O)CF)CC4)nc3)nc(-c3cc(Cl)cc(Cl)c3)c2)CC1` (centres unmarked) [Example 304, N-((1-((2-(3,5-dichlorophenyl)-6-((2-(4-(3-fluoro-2-hydroxypropyl)piperazin-1-yl)pyrimidin-5-yl)oxy)pyridin-4-yl)methyl)piperidin-4-yl)methyl)acetamide], in experiment [1], the “furin enzyme pIC50” value turned out to be 8.8. The EC50 in experiment [2] was 2.51 nM.
